According to patent US4592906A, “Ultra-violet absorbing compounds and compositions containing said compounds” (Graesser Laboratories, Ltd., priority 1984, dated 1986):
In brackets after ≈: the same amount, converted by molar mass.

Assays:
Assay type in all cases: physicochemical
[1] = Ultra-violet absorption (absorptivity, absorption maximum); conditions: for Absorptivity: c in g/l, path length b in centimeters
Procedure: The absorptivity of the following p-dimethylaminocinnamate was measured using the formula [formula] wherein c is concentration in g/l and b is path length in centimeters: […]

[2] = Solubility in liquid paraffin (mineral oil) at 23; conditions: organic solvent or mixture
Excerpt: In particular, their solubilities in liquid paraffin are as follows:
Ester paraffin at 23 (% wt/vol)

[3] = Miscibility with liquid paraffin (mineral oil), methanol and water
[4] = Physical state at room temperature

SMILES | Absorptivity [1] [L/g/cm] | solubility [2] [mg/mL] | other results
CCOC(=O)C=Cc1ccc(N(C)C)cc1 [(2), ethyl p-dimethylaminocinnamate, reference compound] | 125 | – | –
CC(C)CCOC(=O)C=Cc1ccc(N(C)C)cc1 [(a), 3-methylbutyl-p-dimethylaminocinnamate] | – | 24 (≈ 91.8 mM) | –
CCCCCCCOC(=O)C=Cc1ccc(N(C)C)cc1 [(b), 1-heptyl p-dimethylaminocinnamate] | – | 21 (≈ 72.6 mM) | –
CCCCCCCCOC(=O)C=Cc1ccc(N(C)C)cc1 [(c), 1-octyl p-dimethylaminocinnamate, reference compound] | 89 | 25 (≈ 82.4 mM) | –
CC(CCOC(=O)C=Cc1ccc(N(C)C)cc1)CC(C)(C)C (centres unmarked) [(d), 3,5,5-trimethylhexyl p-dimethylaminocinnamate] | – | 29 (≈ 91.3 mM) | –
CC1CC(OC(=O)C=Cc2ccc(N(C)C)cc2)CC(C)(C)C1 (centres unmarked) [(e), 3,3,5-trimethylcyclohexyl p-dimethylaminocinnamate] | – | 12 (≈ 38 mM) | –
CCCCCCCCCCOC(=O)C=Cc1ccc(N(C)C)cc1 [(f), 1-decyl p-dimethylaminocinnamate] | – | 21 (≈ 63.3 mM) | –
CCCCC(CC)COC(=O)C=Cc1ccc(N(C)C)cc1 (centres unmarked) [Example 2-Ethylhexyl, 2-Ethylhexyl 4-dimethylaminocinnamate] | 101 | – | λmax ([1]; Example 1, prepared product): 360 nm; miscibility with liquid paraffin (mineral oil) [3]: completely miscible; miscibility with methanol [3]: completely miscible; physical state at room temperature [4]: liquid at room temperature
CCCCCCC(C)OC(=O)C=Cc1ccc(N(C)C)cc1 (centres unmarked) [Example 2-Octyl, 2-octyl 4-dimethylaminocinnamate] | 95 | – | miscibility with liquid paraffin (mineral oil) [3]: completely miscible; miscibility with methanol [3]: completely miscible; physical state at room temperature [4]: liquid at room temperature
